# Measured values published in the SangsterLogP compilation.
# Test: method code SF-AS, from Smul'skii, S.; Bogatskii, A.; Andronati, S.; Vikhlyaev, Yu.; Zhilina, Z. (1977). Lipophilic nature of quinazolin-2-ones and 1,2-dihydro-3H-1,4-benzodiazepin-2-ones. Otdel. Khim. Nauk., 235(2)369-371.
# Details: pH 7.4
row,SMILES,logD
1,O=C1CN(O)C(c2ccccc2)=c2cc(Br)ccc2=N1,1.53
2,CC(=O)OC1N=C(c2ccccc2)c2cc(Cl)ccc2NC1=O (configuration not stated),2.6
3,CCCC1N=C(c2ccccc2)c2cc(Cl)ccc2NC1=O (configuration not stated),4.14
4,O=c1nc(-c2ccccc2)c2cc(Cl)ccc2[nH]1,2.53
5,Cc1ccc2c(c1)=C(c1ccccc1)N(O)CC(=O)N=2,1.13
6,O=C1CN=C(c2ccccc2Cl)c2cc(Br)ccc2N1,3.3
7,CC(C)C1N=C(c2ccccc2)c2cc(Cl)ccc2NC1=O (configuration not stated),4
8,O=c1nc(-c2ccccc2)c2cc(Br)ccc2[nH]1,2.71
9,Cc1ccc2[nH]c(=O)nc(-c3ccccc3)c2c1,2.32
10,CC1N=C(c2ccccc2)c2cc(Cl)ccc2N(C)C1=O (configuration not stated),3.68
11,O=C1Nc2ccc(Br)cc2C(c2ccccc2Cl)=NC1O (configuration not stated),2.54
12,O=c1nc(-c2ccccc2)c2ccccc2[nH]1,1.91
13,CCC1N=C(c2ccccc2)c2cc(Br)ccc2NC1=O (configuration not stated),3.79
14,CC(C)C1N=C(c2ccccc2)c2cc(Br)ccc2NC1=O (configuration not stated),4.18
15,O=C1CN=C(c2ccccc2)c2cc(Br)ccc2N1,3.11
16,CC(=O)OC1N=C(c2ccccc2)c2cc(Br)ccc2NC1=O (configuration not stated),2.76
17,CC1N=C(c2ccccc2)c2cc(Cl)ccc2NC1=O (configuration not stated),3.25
